Assay results as given in PMC12090182, “Repurposing of the RIPK1-Selective Benzo[1,4]oxazepin-4-one Scaffold for the Development of a Type III LIMK1/2 Inhibitor” (ACS Chemical Biology, 2025).
Like-named read-outs stand apart in the source and are kept apart here.

Test system: HEK293T cells
Type: cell-based
Conditions: HEK293T
Summary of the method: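 HEK293T and U2OS cells (DMEM) and MRC-9 fibroblasts (EMEM) exposed to compounds at 1 and 10 μM. Live-cell confocal imaging of cell shape and fluorescence before and at 12, 24 and 48 h. Normalized to 0.1% DMSO; biological duplicates with SEM.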

[1] = 1 µM, 0 h after treatment, biological replicate 1
[2] = 1 µM, 0 h after treatment, biological replicate 2
[3] = 1 µM, 12 h after treatment, biological replicate 1
[4] = 1 µM, 12 h after treatment, biological replicate 2
[5] = 1 µM, 24 h after treatment, biological replicate 1
[6] = 1 µM, 24 h after treatment, biological replicate 2
[7] = 1 µM, 48 h after treatment, biological replicate 1
[8] = 1 µM, 48 h after treatment, biological replicate 2
[9] = 10 µM, 0 h after treatment, biological replicate 1
[10] = 10 µM, 0 h after treatment, biological replicate 2
[11] = 10 µM, 12 h after treatment, biological replicate 1
[12] = 10 µM, 12 h after treatment, biological replicate 2
[13] = 10 µM, 24 h after treatment, biological replicate 1
[14] = 10 µM, 24 h after treatment, biological replicate 2
[15] = 10 µM, 48 h after treatment, biological replicate 1
[16] = 10 µM, 48 h after treatment, biological replicate 2

CC(C)C(=O)Nc1ncc(C(=O)NCCN(Cc2ccccc2)C(=O)c2ccc(S(=O)(=O)Nc3ccccc3)cc2)s1 [TH470]
Cell count normalized to cells treated with DMSO control [1]: 0.821 | Cell count per well [1]: 245 | Population Fragmented Nuclei (%) [1]: 8.67% | Population Healthy Nuclei (%) [1]: 36.73% | Population Pyknosed Nuclei (%) [1]: 54.59% | Population apoptotic cell (%) [1]: 45.79% | Population cell that influence microtubule strucutre (%) [1]: 23.61% | Population with increased mitochondrial mass (%) [1]: 62.50% | Population with membrane disruption (%) [1]: 0.00% | Cell count normalized to cells treated with DMSO control [2]: 1.084 | Cell count per well [2]: 248 | Population Fragmented Nuclei (%) [2]: 6.57% | Population Healthy Nuclei (%) [2]: 60.56% | Population Pyknosed Nuclei (%) [2]: 32.86% | Population apoptotic cell (%) [2]: 65.71% | Population cell that influence microtubule strucutre (%) [2]: 23.26% | Population with increased mitochondrial mass (%) [2]: 77.52% | Population with membrane disruption (%) [2]: 0.00% | Cell count normalized to cells treated with DMSO control [3]: 0.762 | Cell count per well [3]: 347 | Population Fragmented Nuclei (%) [3]: 6.25% | Population Healthy Nuclei (%) [3]: 79.38% | Population Pyknosed Nuclei (%) [3]: 14.38% | Population apoptotic cell (%) [3]: 34.78% | Population cell that influence microtubule strucutre (%) [3]: 27.17% | Population with increased mitochondrial mass (%) [3]: 44.49% | Population with membrane disruption (%) [3]: 0.79% | Cell count normalized to cells treated with DMSO control [4]: 1.119 | Cell count per well [4]: 392 | Population Fragmented Nuclei (%) [4]: 8.45% | Population Healthy Nuclei (%) [4]: 80.85% | Population Pyknosed Nuclei (%) [4]: 10.70% | Population apoptotic cell (%) [4]: 44.74% | Population cell that influence microtubule strucutre (%) [4]: 20.91% | Population with increased mitochondrial mass (%) [4]: 53.66% | Population with membrane disruption (%) [4]: 0.70% | Cell count normalized to cells treated with DMSO control [5]: 0.7629 | Cell count per well [5]: 463 | Population Fragmented Nuclei (%) [5]: 9.77% | Population Healthy Nuclei (%) [5]: 77.91% | Population Pyknosed Nuclei (%) [5]: 12.33% | Population apoptotic cell (%) [5]: 49.06% | Population cell that influence microtubule strucutre (%) [5]: 18.21% | Population with increased mitochondrial mass (%) [5]: 28.66% | Population with membrane disruption (%) [5]: 1.49% | Cell count normalized to cells treated with DMSO control [6]: 1.065 | Cell count per well [6]: 481 | Population Fragmented Nuclei (%) [6]: 9.19% | Population Healthy Nuclei (%) [6]: 81.84% | Population Pyknosed Nuclei (%) [6]: 8.97% | Population apoptotic cell (%) [6]: 42.50% | Population cell that influence microtubule strucutre (%) [6]: 14.25% | Population with increased mitochondrial mass (%) [6]: 34.25% | Population with membrane disruption (%) [6]: 0.55% | Cell count normalized to cells treated with DMSO control [7]: 0.791 | Cell count per well [7]: 800 | Population Fragmented Nuclei (%) [7]: 15.22% | Population Healthy Nuclei (%) [7]: 78.13% | Population Pyknosed Nuclei (%) [7]: 6.65% | Population apoptotic cell (%) [7]: 21.15% | Population cell that influence microtubule strucutre (%) [7]: 12.27% | Population with increased mitochondrial mass (%) [7]: 18.82% | Population with membrane disruption (%) [7]: 1.47% | Cell count normalized to cells treated with DMSO control [8]: 1.233 | Cell count per well [8]: 842 | Population Fragmented Nuclei (%) [8]: 13.32% | Population Healthy Nuclei (%) [8]: 80.63% | Population Pyknosed Nuclei (%) [8]: 6.05% | Population apoptotic cell (%) [8]: 22.00% | Population cell that influence microtubule strucutre (%) [8]: 11.71% | Population with increased mitochondrial mass (%) [8]: 13.96% | Population with membrane disruption (%) [8]: 2.70% | Cell count normalized to cells treated with DMSO control [9]: 0.9315 | Cell count per well [9]: 278 | Population Fragmented Nuclei (%) [9]: 7.95% | Population Healthy Nuclei (%) [9]: 44.77% | Population Pyknosed Nuclei (%) [9]: 47.28% | Population apoptotic cell (%) [9]: 36.28% | Population cell that influence microtubule strucutre (%) [9]: 15.89% | Population with increased mitochondrial mass (%) [9]: 64.49% | Population with membrane disruption (%) [9]: 0.00% | Cell count normalized to cells treated with DMSO control [10]: 0.9485 | Cell count per well [10]: 217 | Population Fragmented Nuclei (%) [10]: 6.86% | Population Healthy Nuclei (%) [10]: 61.76% | Population Pyknosed Nuclei (%) [10]: 31.37% | Population apoptotic cell (%) [10]: 54.69% | Population cell that influence microtubule strucutre (%) [10]: 26.19% | Population with increased mitochondrial mass (%) [10]: 83.33% | Population with membrane disruption (%) [10]: 0.00% | Cell count normalized to cells treated with DMSO control [11]: 0.7906 | Cell count per well [11]: 360 | Population Fragmented Nuclei (%) [11]: 7.79% | Population Healthy Nuclei (%) [11]: 76.01% | Population Pyknosed Nuclei (%) [11]: 16.20% | Population apoptotic cell (%) [11]: 50.00% | Population cell that influence microtubule strucutre (%) [11]: 67.21% | Population with increased mitochondrial mass (%) [11]: 73.77% | Population with membrane disruption (%) [11]: 0.00% | Cell count normalized to cells treated with DMSO control [12]: 0.8648 | Cell count per well [12]: 303 | Population Fragmented Nuclei (%) [12]: 4.80% | Population Healthy Nuclei (%) [12]: 76.38% | Population Pyknosed Nuclei (%) [12]: 18.82% | Population apoptotic cell (%) [12]: 66.67% | Population cell that influence microtubule strucutre (%) [12]: 63.77% | Population with increased mitochondrial mass (%) [12]: 85.02% | Population with membrane disruption (%) [12]: 0.97% | Cell count normalized to cells treated with DMSO control [13]: 0.6459 | Cell count per well [13]: 392 | Population Fragmented Nuclei (%) [13]: 10.66% | Population Healthy Nuclei (%) [13]: 68.30% | Population Pyknosed Nuclei (%) [13]: 21.04% | Population apoptotic cell (%) [13]: 42.47% | Population cell that influence microtubule strucutre (%) [13]: 67.93% | Population with increased mitochondrial mass (%) [13]: 75.53% | Population with membrane disruption (%) [13]: 0.00% | Cell count normalized to cells treated with DMSO control [14]: 0.6866 | Cell count per well [14]: 310 | Population Fragmented Nuclei (%) [14]: 8.92% | Population Healthy Nuclei (%) [14]: 72.12% | Population Pyknosed Nuclei (%) [14]: 18.96% | Population apoptotic cell (%) [14]: 45.10% | Population cell that influence microtubule strucutre (%) [14]: 52.06% | Population with increased mitochondrial mass (%) [14]: 79.38% | Population with membrane disruption (%) [14]: 1.55% | Cell count normalized to cells treated with DMSO control [15]: 0.5428 | Cell count per well [15]: 549 | Population Fragmented Nuclei (%) [15]: 15.79% | Population Healthy Nuclei (%) [15]: 71.54% | Population Pyknosed Nuclei (%) [15]: 12.67% | Population apoptotic cell (%) [15]: 44.62% | Population cell that influence microtubule strucutre (%) [15]: 57.49% | Population with increased mitochondrial mass (%) [15]: 61.58% | Population with membrane disruption (%) [15]: 2.45% | Cell count normalized to cells treated with DMSO control [16]: 0.5405 | Cell count per well [16]: 369 | Population Fragmented Nuclei (%) [16]: 12.20% | Population Healthy Nuclei (%) [16]: 75.00% | Population Pyknosed Nuclei (%) [16]: 12.80% | Population apoptotic cell (%) [16]: 55.81% | Population cell that influence microtubule strucutre (%) [16]: 64.68% | Population with increased mitochondrial mass (%) [16]: 73.81% | Population with membrane disruption (%) [16]: 1.19%
